Test results from US20190358181A1, “METHODS FOR AUTISM SPECTRUM DISORDER PHARMACOTHERAPY” (priority 2017, published 2019).

Test system: 610 metabolites from 63 biochemical pathways
Assay: Targeted broad-spectrum plasma metabolomic analysis (LC-MS/MS), paired pre-infusion vs post-infusion (2-days and 6-weeks)
Assay type: in vivo, human
Conditions: for Linear Ratio / VIP Score / Z Abs / Z Score: plasma
Protocol: Targeted, broad-spectrum, plasma metabolomic analysis of 610 metabolites from 63 biochemical pathways was performed by high performance liquid chromatography and tandem mass spectrometry (LC-MS/MS) on the samples collected from patients in Example 1. Venous blood was collected between the hours of 8 am and 5 pm, at least 3 hours after the last meal, into lithium-heparin vacutainer tubes (BD #367884). Plasma was separated by centrifugation at 900 g×10 minutes at room temperature within one hour of collection. The resulting fresh lithium-heparin plasma was transferred to labeled 1.2 ml or 2.0 ml externally threaded cryotubes with a minimum headspace air gap for storage at −80° C. for analysis. Samples were analyzed on an AB SCIEX QTRAP 5500 triple quadrupole mass spectrometer equipped with a Turbo V electrospray ionization (ESI) source, Shimadzu LC-20A UHPLC system, and a PAL CTC autosampler. Typically, 90 μl of plasma was thawed on ice and transferred to a 1.7 ml Eppendorf tube. Five (5.0) μl of a cocktail containing 25-35 commercial stable isotope internal standards, and 5.0 μl of 57 stable isotope internal standards that were custom-synthesized in E. coli NCM3722, Caenorhabditis elegans N2, and Komagataella phaffii (ATCC 76273; formerly known as Pichia pastoris) by metabolic labeling with 13C-glucose and 13C-bicarbonate, were added, mixed, and incubated for 10 min at 20° C. to permit small molecules and vitamins in the internal standards to associate with plasma binding proteins. Macromolecules (protein, DNA, RNA, glycans, etc.) were precipitated by extraction with 4 volumes (400 μl) of cold (−20° C.), acetonitrile:methanol (50:50) (LCMS grade, Cat #LC015-2.5 and GC230-4, Burdick & Jackson, Honeywell), vortexed vigorously, and incubated on crushed ice for 10 min, then removed by centrifugation at 16,000 g×10 min at 4° C. The supernatants containing the extracted metabolites and internal standards in the resulting 40:40:20 solvent mix of acetonitrile:methanol:water were transferred to labeled cryotubes and stored at −80° C. for LCMS/MS analysis.
LC-MS/MS analysis was performed by scheduled multiple reaction monitoring (sMRM) under Analyst v1.6.2 software control in both negative and positive mode with rapid polarity switching (50 ms). Nitrogen was used for curtain gas (set to 30), collision gas (set to high), ion source gas 1 and 2 (set to 35). The source temperature was 500° C. Spray voltage was set to −4500 V in negative mode and 5500 V in positive mode. The values for Q1 and Q3 mass-to-charge ratios (m/z), declustering potential (DP), entrance potential (EP), collision energy (CE), and collision cell exit potential (CXP) were determined and optimized for each MRM for each metabolite. Ten microliters of extract was injected by PAL CTC autosampler via a 10 μl stainless steel loop into a 250 mm×2.0 mm, 4 μm polymer based NH2 HPLC column (Asahipak NH2P-40 2E, Showa Denko America, Inc., NY) held at 25° C. for chromatographic separation. The mobile phase was solvent A: 95% water with 20 mM (NH4)2CO3 (Sigma, Fluka Cat #74415-250G-F), 5% acetonitrile, and 38 mM NH4OH (Sigma, Fluka Cat #17837-100ML), final pH 9.75; solvent B: 100% acetonitrile. Separation was achieved using the following gradient: 0-3.5 min: 95% B, 3.6-8 min: 85% B, 8.1-13 min: 75% B, 13.5-35 min: 0% B, 36-46 min: 95% B, 46.1 min: end. The flow rate was 200 μl/min. Pump pressures ranged from 920-2600 psi over the course of the gradient. All the samples were kept at 4° C. during analysis. The chromatographic peaks were identified using MultiQuant (v3.0, Sciex), confirmed by manual inspection, and the peak areas integrated. […]

[1] = Branch Chain Amino Acid Metabolism, 2-days
[2] = Branch Chain Amino Acid Metabolism, 6-weeks
[3] = Chenodeoxyglycocholic acid, 6-weeks
[4] = Cholesterol, Cortisol, Non-Gonadal Steroid Metabolism, 6-weeks
[5] = Cholesterol, Cortisol, Non-Gonadal Steroid, 2-days
[6] = Cyclic adenosine monophosphate, 6-weeks
[7] = Deoxy guanosine diphosphate, 6-weeks
[8] = Eicosanoid and Resolvin Metabolism, 2-days
[9] = Endocannabinoid Metabolism, 2-days
[10] = Fatty Acid Oxidation and Synthesis, 2-days
[11] = Fatty Acid Oxidation and Synthesis, 6-weeks

Cc1ccc(C(=O)Nc2ccc(S(=O)(=O)O)c3cc(S(=O)(=O)O)cc(S(=O)(=O)O)c23)cc1NC(=O)c1cccc(NC(=O)Nc2cccc(C(=O)Nc3cc(C(=O)Nc4ccc(S(=O)(=O)O)c5cc(S(=O)(=O)O)cc(S(=O)(=O)O)c45)ccc3C)c2)c1 [Suramin, suramin]
Fold Enrichment (Obs/Exp) [1]: 2.4
Fraction of Impact (VIP Score) Explained (% of 119.7) [1]: 6%
Impact (Sum VIP Score) [1]: 7.3
Increased [1]: 4
Observed Hits in the Top 61 Metabolites [1]: 4
Decreased [2]: 0
Fold Enrichment (Obs/Exp) [2]: 3.0
Fraction of Impact (VIP Score) Explained (% of 94.6) [2]: 8%
Impact (Sum VIP Score) [2]: 7.4
Increased [2]: 4
Observed Hits in the Top 48 Metabolites [2]: 4
Decreased (Cardiolipin Metabolism, 2-days): 0
Fold Enrichment (Obs/Exp) (Cardiolipin Metabolism, 2-days): 2.0
Fraction of Impact (VIP Score) Explained (% of 119.7) (Cardiolipin Metabolism, 2-days): 3%
Impact (Sum VIP Score) (Cardiolipin Metabolism, 2-days): 3.1
Increased (Cardiolipin Metabolism, 2-days): 2
Observed Hits in the Top 61 Metabolites (Cardiolipin Metabolism, 2-days): 2
Decreased (Ceramide Metabolism, 2-days): 0
Fold Enrichment (Obs/Exp) (Ceramide Metabolism, 2-days): 0.2
Fraction of Impact (VIP Score) Explained (% of 119.7) (Ceramide Metabolism, 2-days): 1%
Impact (Sum VIP Score) (Ceramide Metabolism, 2-days): 1.5
Increased (Ceramide Metabolism, 2-days): 1
Observed Hits in the Top 61 Metabolites (Ceramide Metabolism, 2-days): 1
Linear Ratio (Chenodeoxycholic acid, 6-weeks): 2.080
VIP Score (Chenodeoxycholic acid, 6-weeks): 1.670
Z Abs (Chenodeoxycholic acid, 6-weeks): 1.575
Z Score (Chenodeoxycholic acid, 6-weeks): 1.575
Linear Ratio [3]: 2.858
VIP Score [3]: 2.052
Z Abs [3]: 1.650
Z Score [3]: 1.650
Decreased [4]: 0
Fold Enrichment (Obs/Exp) [4]: 1.1
Fraction of Impact (VIP Score) Explained (% of 94.6) [4]: 4%
Impact (Sum VIP Score) [4]: 3.5
Increased [4]: 2
Observed Hits in the Top 48 Metabolites [4]: 2
Decreased [5]: 0
Fold Enrichment (Obs/Exp) [5]: 0.4
Fraction of Impact (VIP Score) Explained (% of 119.7) [5]: 2%
Impact (Sum VIP Score) [5]: 1.8
Increased [5]: 1
Observed Hits in the Top 61 Metabolites [5]: 1
Linear Ratio (Cinnamoylglycine, 6-weeks): 1.190
VIP Score (Cinnamoylglycine, 6-weeks): 1.790
Z Abs (Cinnamoylglycine, 6-weeks): 2.218
Z Score (Cinnamoylglycine, 6-weeks): 2.218
Linear Ratio (Citric acid, 6-weeks): 1.363
VIP Score (Citric acid, 6-weeks): 2.410
Z Abs (Citric acid, 6-weeks): 1.772
Z Score (Citric acid, 6-weeks): 1.772
Linear Ratio [6]: 0.701
VIP Score [6]: 1.962
Z Abs [6]: 1.544
Z Score [6]: −1.544
Linear Ratio (Cysteamine, 6-weeks): 1.157
VIP Score (Cysteamine, 6-weeks): 2.060
Z Abs (Cysteamine, 6-weeks): 2.007
Z Score (Cysteamine, 6-weeks): 2.007
Linear Ratio (Cytosine, 6-weeks): 1.932
VIP Score (Cytosine, 6-weeks): 2.442
Z Abs (Cytosine, 6-weeks): 2.582
Z Score (Cytosine, 6-weeks): 2.582
Linear Ratio (Decanoylcarnitine, 6-weeks): 0.644
VIP Score (Decanoylcarnitine, 6-weeks): 1.617
Z Abs (Decanoylcarnitine, 6-weeks): 1.157
Z Score (Decanoylcarnitine, 6-weeks): −1.157
Linear Ratio [7]: 0.864
VIP Score [7]: 1.915
Z Abs [7]: 1.583
Z Score [7]: −1.583
Decreased [8]: 4
Fold Enrichment (Obs/Exp) [8]: 2.2
Fraction of Impact (VIP Score) Explained (% of 119.7) [8]: 6%
Impact (Sum VIP Score) [8]: 7.1
Increased [8]: 0
Observed Hits in the Top 61 Metabolites [8]: 4
Decreased [9]: 1
Fold Enrichment (Obs/Exp) [9]: 1.8
Fraction of Impact (VIP Score) Explained (% of 119.7) [9]: 1%
Impact (Sum VIP Score) [9]: 1.7
Increased [9]: 0
Observed Hits in the Top 61 Metabolites [9]: 1
Decreased [10]: 1
Fold Enrichment (Obs/Exp) [10]: 0.2
Fraction of Impact (VIP Score) Explained (% of 119.7) [10]: 2%
Impact (Sum VIP Score) [10]: 1.8
Increased [10]: 0
Observed Hits in the Top 61 Metabolites [10]: 1
Decreased [11]: 3
Fold Enrichment (Obs/Exp) [11]: 0.7
Fraction of Impact (VIP Score) Explained (% of 94.6) [11]: 5%
Impact (Sum VIP Score) [11]: 5.0
